Measured values: patent US20130210911A1, “METHOD AND COMPOSITION FOR TREATING A DISEASE OR CONDITION RELATED TO OREXIN RECEPTOR 1, OREXIN RECEPTOR 2, SOMATOSTATIN RECEPTOR 2 OR DOPAMINE D2L RECEPTOR” (CENTER LABORATORIES, INC., priority 2009, published 2013)
Counter-ions that a name gives are not always drawn. Like-named read-outs stand apart in the source and are kept apart here.

Tests used:
Somatostatin receptor 2 = Somatostatin receptor 2 (Cavia porcellus, UniProt A0A286XKC5); assay: Somatostatin tissue assay; settings: guinea pig tissue
From the text: (§1) Orexin receptor 1 or 2 binding affinity was examined using the methods disclosed by Kukkonen et al., (2002) Am J Physiol Cell Physiol. 283:C1567-C1591; and Langmead et al., (2004) Br J Pharmacol. 141(2):340-346. […] Pharmacol. 58:254-264; and Spedding. (1984) M. Eur J Pharmacol. 83:211. Somaostatin receptor 2 binding activity was estimated by the method described by Feniuk et al., (1993) Br J Pharmacol. 110:1156-1164. Adenosine receptor binding activity was examined using the method described by Varani et al., (1996) Br J Pharmacol. 117:1693-1701. Bradykinin receptor binding activity was examined using the methods described by Horlick et al., (1999) Immunopharmacology 43(2-3):169-177; and Phagoo et al., (2001) J Pharmacol Exp Ther 298(1):77-85. Calcium channel (N-type) binding activity was examined using the method disclosed by Moresco et al., (1990) Neurobiol of Aging. 11(4):433-436. Cannabinoid receptor binding activity was examined using the method disclosed by Reggio et al., (1998) J Med Chem 41(26):5177-5187. […] Estrogen receptors (including ERα and ERβ) were examined using the method disclosed by Obourn et al., (1993) Biochem 32:6229-6236. […]

Sodium Channel, Site 2 = assay: Sodium channel, site 2 binding assay; parameters: species or system rat
Melatonin receptor = Melatonin receptor binding activity; settings: data not shown
From the text: (§2) Pharmacol. 58:254-264; and Spedding. (1984) M. Eur J Pharmacol. 83:211. […] 11(4):433-436. […] 75(6):2590-2601. […] 329:161-184.

Dopamine D2L receptor = Dopamine D2L receptor (Homo sapiens, UniProt P14416)
From the text: as §1

N-type calcium channel = N-type calcium channel (Rattus norvegicus, UniProt Q02294); assay: Calcium channel (N-type) binding activity; settings: data not shown
From the text: as §2

Serotonin receptor = settings: data not shown
Experimental: (§3) Binding activity was evaluated to assess the selectivity of verapamil on various receptors. The binding activity of the reported receptors was analyzed using the following known methods. Primary screening were performed in duplicate and presented in semi-quantitative data (e.g., IC50, Ki and nH). Where presented, IC50 values were determined by a non-linear, least squares regression analysis using MathIQ™ (ID Bussiness Solutions Ltd., UK). […] Where presented, the Hill coefficient (nH), defining the slope of the competitive binding curve, was calculated using MathIQ™.
Orexin receptor 1 or 2 binding affinity was examined using the methods disclosed by Kukkonen et al., (2002) Am J Physiol Cell Physiol. 283:C1567-C1591; and Langmead et al., (2004) Br J Pharmacol. 141(2):340-346. […] Pharmacol. 58:254-264; and Spedding. (1984) M. Eur J Pharmacol. 83:211. Somaostatin receptor 2 binding activity was estimated by the method described by Feniuk et al., (1993) Br J Pharmacol. 110:1156-1164. Adenosine receptor binding activity was examined using the method described by Varani et al., (1996) Br J Pharmacol. 117:1693-1701. Bradykinin receptor binding activity was examined using the methods described by Horlick et al., (1999) Immunopharmacology 43(2-3):169-177; and Phagoo et al., (2001) J Pharmacol Exp Ther 298(1):77-85. […]

Orexin receptor 2 = target: T1, Orexin receptor 2 (Homo sapiens, UniProt O43614); assay: biochemical; settings: for nH (Hill coefficient): human orexin receptor 2 binding
T1 sequence (O43614 1-444): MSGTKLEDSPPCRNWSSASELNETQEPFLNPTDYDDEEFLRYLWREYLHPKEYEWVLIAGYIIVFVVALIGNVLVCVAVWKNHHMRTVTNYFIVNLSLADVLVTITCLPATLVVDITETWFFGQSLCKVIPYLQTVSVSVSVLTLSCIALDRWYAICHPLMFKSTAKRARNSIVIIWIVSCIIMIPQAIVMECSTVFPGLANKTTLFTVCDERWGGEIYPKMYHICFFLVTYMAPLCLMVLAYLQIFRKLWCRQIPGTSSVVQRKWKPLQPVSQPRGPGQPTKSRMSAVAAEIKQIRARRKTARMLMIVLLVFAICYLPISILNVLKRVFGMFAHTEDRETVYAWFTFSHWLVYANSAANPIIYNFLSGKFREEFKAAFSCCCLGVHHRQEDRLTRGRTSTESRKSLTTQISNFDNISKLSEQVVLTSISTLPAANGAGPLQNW
Experimental: as §3
(§4) Orexin receptor 1 or 2 binding affinity was examined using the methods disclosed by Kukkonen et al., (2002) Am J Physiol Cell Physiol. 283:C1567-C1591; and Langmead et al., (2004) Br J Pharmacol. 141(2):340-346. […] Pharmacol. 58:254-264; and Spedding. (1984) M. Eur J Pharmacol. 83:211. Somaostatin receptor 2 binding activity was estimated by the method described by Feniuk et al., (1993) Br J Pharmacol. 110:1156-1164. Adenosine receptor binding activity was examined using the method described by Varani et al., (1996) Br J Pharmacol. 117:1693-1701. Bradykinin receptor binding activity was examined using the methods described by Horlick et al., (1999) Immunopharmacology 43(2-3):169-177; and Phagoo et al., (2001) J Pharmacol Exp Ther 298(1):77-85. Calcium channel (N-type) binding activity was examined using the method disclosed by Moresco et al., (1990) Neurobiol of Aging. 11(4):433-436. Cannabinoid receptor binding activity was examined using the method disclosed by Reggio et al., (1998) J Med Chem 41(26):5177-5187. […] Estrogen receptors (including ERα and ERβ) were examined using the method disclosed by Obourn et al., (1993) Biochem 32:6229-6236. GABA receptor (including GABAA and GABAB1A,) binding activity was examined using methods disclosed by Lewin et al., (1989) Mol Pharmacol 35:189-194; Maksay G. (1993) Eur J Pharmacol 246:255-260; Enna and Snyder, (1977) Mol Pharmacol. 13:442-453; Martini et al., (1983) J Neurochem. […] Leptin receptor binding activity was examined using the method disclosed by Fong et al., (1998) Mol Pharmacol 53:234-240. […] 75(6):2590-2601. Tachykinin receptor binding activity was examined using the method disclosed by Patacchini and Maggi, (1995) Arch Int Pharmacodyn. 329:161-184. Vanilloid receptor binding activity was examined using the methods disclosed by Szallasi et al., (1993) J Pharmacol Exp Ther. 267(2):728-733. Melatonin receptor binding activity was examined using the methods disclosed by Beresford et al., (1998) J Pharmacol Exp Ther 285(3):1239-1245; and Paul et al., (1999) J Pharmacol Exp Ther 290(1):334-340. Serotonin receptor binding activity was examined using the methods disclosed by Bonhaus et al., (1995) Br J Pharmacol 115:622-628; and Saucier and Albert (1997) J. Neuorchem 68:1998-2011.

Orexin receptor 1 = target: T2, Orexin receptor 1 (Homo sapiens, UniProt O43613); assay: biochemical; settings: for nH (Hill coefficient): human orexin receptor 1 binding
T2 sequence (O43613 1-425): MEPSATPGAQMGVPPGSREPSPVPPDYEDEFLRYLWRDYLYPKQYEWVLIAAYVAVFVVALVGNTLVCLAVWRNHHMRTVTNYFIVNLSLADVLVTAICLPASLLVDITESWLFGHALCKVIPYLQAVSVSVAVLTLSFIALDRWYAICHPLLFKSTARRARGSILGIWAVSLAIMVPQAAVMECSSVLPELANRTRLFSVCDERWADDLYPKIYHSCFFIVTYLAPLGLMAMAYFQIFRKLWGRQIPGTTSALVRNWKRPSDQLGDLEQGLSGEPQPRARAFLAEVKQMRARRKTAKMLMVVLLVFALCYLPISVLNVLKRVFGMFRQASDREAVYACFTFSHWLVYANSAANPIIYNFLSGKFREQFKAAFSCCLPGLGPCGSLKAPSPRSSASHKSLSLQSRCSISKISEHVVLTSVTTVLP
Experimental: as §3, §4

Chain of Dopamine D2L receptor (P14416 whole entry): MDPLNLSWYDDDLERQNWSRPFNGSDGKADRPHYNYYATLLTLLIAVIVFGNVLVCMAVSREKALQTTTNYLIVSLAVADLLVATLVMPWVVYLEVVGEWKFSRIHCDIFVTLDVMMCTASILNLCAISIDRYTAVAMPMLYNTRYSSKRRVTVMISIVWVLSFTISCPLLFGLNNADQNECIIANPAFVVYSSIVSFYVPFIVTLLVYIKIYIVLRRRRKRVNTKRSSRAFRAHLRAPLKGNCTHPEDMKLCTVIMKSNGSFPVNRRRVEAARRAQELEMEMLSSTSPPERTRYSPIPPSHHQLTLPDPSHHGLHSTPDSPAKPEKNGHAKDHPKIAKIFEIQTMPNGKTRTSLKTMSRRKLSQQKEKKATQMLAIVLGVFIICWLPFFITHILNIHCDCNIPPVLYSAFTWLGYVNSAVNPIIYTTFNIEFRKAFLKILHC
Chain of N-type calcium channel (P54287 whole entry): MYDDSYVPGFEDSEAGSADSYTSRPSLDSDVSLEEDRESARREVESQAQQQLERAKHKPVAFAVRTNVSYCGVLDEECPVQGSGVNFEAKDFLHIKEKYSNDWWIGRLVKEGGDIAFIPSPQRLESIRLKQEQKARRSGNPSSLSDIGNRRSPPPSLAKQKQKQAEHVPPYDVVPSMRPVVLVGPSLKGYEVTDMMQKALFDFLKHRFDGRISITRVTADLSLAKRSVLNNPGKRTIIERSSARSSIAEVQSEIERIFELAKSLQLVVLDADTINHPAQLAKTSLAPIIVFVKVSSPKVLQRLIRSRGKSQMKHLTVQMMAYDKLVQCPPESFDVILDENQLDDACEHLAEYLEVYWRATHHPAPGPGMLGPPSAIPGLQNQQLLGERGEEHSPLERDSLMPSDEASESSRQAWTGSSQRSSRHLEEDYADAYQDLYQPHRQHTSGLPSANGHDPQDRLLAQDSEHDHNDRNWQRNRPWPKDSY
Chain of N-type calcium channel (P54290 945-1091, further chain): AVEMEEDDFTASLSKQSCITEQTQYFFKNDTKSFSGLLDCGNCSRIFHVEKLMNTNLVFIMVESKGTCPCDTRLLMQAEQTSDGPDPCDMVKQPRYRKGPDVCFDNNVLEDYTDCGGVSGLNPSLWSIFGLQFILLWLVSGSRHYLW
Chain of N-type calcium channel (Q02294 whole entry): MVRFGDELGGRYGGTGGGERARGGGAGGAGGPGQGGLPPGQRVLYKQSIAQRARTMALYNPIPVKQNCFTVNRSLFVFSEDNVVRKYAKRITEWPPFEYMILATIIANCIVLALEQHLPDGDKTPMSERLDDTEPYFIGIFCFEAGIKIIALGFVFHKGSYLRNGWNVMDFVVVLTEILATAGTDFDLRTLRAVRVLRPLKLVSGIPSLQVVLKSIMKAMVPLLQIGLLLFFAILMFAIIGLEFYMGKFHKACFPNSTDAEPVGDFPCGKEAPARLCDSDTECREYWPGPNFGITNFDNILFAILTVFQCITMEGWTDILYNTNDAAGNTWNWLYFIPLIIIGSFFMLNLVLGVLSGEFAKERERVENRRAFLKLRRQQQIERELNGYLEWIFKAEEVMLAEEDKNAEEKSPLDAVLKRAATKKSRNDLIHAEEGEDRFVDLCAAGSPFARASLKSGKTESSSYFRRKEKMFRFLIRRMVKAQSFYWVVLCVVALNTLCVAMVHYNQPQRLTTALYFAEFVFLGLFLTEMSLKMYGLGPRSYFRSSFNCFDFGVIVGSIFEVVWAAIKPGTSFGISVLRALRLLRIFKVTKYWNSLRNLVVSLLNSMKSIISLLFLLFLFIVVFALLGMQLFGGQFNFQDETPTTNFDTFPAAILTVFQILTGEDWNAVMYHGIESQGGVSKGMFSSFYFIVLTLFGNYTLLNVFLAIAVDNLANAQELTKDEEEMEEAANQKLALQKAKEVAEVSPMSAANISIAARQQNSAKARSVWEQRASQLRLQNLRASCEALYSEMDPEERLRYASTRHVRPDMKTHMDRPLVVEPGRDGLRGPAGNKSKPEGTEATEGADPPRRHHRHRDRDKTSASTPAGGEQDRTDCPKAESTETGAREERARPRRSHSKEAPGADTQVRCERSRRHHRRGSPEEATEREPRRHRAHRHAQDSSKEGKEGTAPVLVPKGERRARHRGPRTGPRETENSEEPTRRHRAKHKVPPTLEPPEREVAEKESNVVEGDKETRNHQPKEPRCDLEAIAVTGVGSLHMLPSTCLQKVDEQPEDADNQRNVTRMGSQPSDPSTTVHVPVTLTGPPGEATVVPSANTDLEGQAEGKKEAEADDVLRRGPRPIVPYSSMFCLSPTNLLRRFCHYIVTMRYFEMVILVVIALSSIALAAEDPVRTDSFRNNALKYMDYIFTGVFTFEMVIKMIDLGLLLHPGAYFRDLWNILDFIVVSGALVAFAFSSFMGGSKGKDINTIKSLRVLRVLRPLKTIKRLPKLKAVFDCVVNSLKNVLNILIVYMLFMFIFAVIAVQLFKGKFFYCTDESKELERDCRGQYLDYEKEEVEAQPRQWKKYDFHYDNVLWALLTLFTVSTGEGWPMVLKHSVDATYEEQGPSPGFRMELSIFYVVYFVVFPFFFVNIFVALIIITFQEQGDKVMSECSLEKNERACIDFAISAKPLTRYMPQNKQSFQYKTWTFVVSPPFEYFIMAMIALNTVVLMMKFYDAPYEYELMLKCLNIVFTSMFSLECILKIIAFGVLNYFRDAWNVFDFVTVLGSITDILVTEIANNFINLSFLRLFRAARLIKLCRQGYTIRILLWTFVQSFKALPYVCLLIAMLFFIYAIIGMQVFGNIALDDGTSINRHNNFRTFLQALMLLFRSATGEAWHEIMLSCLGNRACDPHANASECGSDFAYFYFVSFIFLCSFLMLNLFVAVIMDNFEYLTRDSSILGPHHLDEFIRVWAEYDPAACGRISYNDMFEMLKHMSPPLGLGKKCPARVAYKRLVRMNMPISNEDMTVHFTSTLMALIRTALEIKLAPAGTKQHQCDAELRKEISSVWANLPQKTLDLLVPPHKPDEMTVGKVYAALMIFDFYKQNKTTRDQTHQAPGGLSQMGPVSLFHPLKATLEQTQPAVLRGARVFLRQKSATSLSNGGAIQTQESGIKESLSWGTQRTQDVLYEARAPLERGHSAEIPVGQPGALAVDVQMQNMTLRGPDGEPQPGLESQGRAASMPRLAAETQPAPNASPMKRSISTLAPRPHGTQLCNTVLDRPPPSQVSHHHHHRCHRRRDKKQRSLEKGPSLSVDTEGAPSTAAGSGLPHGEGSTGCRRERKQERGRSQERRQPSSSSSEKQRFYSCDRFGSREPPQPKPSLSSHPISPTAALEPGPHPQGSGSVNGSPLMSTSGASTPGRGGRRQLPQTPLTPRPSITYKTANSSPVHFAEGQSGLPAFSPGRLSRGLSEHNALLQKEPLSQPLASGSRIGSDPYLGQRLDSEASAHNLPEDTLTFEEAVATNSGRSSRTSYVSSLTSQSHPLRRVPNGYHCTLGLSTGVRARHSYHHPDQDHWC
Chain of N-type calcium channel (P54290 25-944, further chain): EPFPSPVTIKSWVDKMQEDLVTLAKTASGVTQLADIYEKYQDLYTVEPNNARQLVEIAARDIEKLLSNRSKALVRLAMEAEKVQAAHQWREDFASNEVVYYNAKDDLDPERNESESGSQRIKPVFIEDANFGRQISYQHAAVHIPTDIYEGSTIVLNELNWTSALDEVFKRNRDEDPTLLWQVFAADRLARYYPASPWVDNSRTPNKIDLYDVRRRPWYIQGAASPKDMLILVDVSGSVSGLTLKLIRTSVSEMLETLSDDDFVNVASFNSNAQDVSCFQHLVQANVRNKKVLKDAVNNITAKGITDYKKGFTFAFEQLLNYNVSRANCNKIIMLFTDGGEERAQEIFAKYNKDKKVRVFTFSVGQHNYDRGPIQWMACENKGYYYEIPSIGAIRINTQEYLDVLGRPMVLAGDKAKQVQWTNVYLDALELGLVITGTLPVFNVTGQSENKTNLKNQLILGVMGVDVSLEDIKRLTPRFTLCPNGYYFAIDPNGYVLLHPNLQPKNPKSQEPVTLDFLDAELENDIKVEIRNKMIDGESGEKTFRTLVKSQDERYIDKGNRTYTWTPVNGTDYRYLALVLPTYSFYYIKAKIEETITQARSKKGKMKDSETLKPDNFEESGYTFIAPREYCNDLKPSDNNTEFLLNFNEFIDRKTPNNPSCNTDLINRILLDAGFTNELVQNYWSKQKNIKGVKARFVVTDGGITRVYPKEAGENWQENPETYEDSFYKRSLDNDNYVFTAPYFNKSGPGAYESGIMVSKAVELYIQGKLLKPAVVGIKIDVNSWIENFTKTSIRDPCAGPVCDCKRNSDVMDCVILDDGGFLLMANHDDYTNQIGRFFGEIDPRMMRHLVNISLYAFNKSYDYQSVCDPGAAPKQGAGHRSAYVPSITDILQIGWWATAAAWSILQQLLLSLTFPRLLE
Chain of Somatostatin receptor 2 (A0A286XKC5 1-368): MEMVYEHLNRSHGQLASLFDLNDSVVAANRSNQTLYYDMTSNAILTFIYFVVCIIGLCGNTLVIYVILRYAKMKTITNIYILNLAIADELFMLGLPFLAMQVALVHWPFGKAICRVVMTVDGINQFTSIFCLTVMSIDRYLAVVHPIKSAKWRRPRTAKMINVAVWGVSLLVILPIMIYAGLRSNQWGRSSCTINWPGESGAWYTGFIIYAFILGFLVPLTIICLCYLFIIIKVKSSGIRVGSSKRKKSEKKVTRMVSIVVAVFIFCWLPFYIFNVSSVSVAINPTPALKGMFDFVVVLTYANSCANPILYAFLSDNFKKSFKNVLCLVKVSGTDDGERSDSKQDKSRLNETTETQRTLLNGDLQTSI

SMILES | AG. (%) (agonist) (Somatostatin receptor 2; conc. 3 μM) | % Inhibition (Sodium Channel, Site 2; rat sodium channel site 2, conc. 10 μM) [%] | binding (in words) (Melatonin receptor) | ANT. (%) (antagonist) (Dopamine D2L receptor; conc. 10 μM) | binding (in words) (N-type calcium channel) | binding (in words) (Serotonin receptor) | inhibition at 100 µM (Orexin receptor 2) [%] | nH (Hill coefficient) (Orexin receptor 2) | inhibition at 300 µM (Orexin receptor 1) [%] | nH (Hill coefficient) (Orexin receptor 1) | AG. (%) (agonist) (Somatostatin receptor 2; conc. 0.3 μM) | % Inhibition (Sodium Channel, Site 2; rat sodium channel site 2, conc. 3 μM) [%] | ANT. (%) (antagonist) (Dopamine D2L receptor; conc. 3 μM) | inhibition at 100 µM (Orexin receptor 1) [%]
COc1ccc(CCN(C)CCC[C@](C#N)(c2ccc(OC)c(OC)c2)C(C)C)cc1OC [(R)-(+)-verapamil hydrochloride] | 69 | 72 | significant binding | 58 | significant binding | significant binding | 56 | 1.81 | 57 | 1.31 | – | – | – | –
COc1ccc(CCN(C)CCC[C@@](C#N)(c2ccc(OC)c(OC)c2)C(C)C)cc1OC [(S)-(−)-verapamil hydrochloride] | – | – | significant binding | – | significant binding | significant binding | 79 | 1.33 | – | 1.27 | 61 | 75 | 66 | 58
